From patent publication US11179363B2, “Non-steroidal selective glucocorticoid receptor agonistic modulators (SEGRAMs) and uses thereof” (ASSOCIATION POUR LA RECHERCHE À L'IGBMC (ARI), priority 2017, dated 2021)

Legend:
[1] = test system: MC 903-induced atopic dermatitis (AD)-like inflammation; test: Calcipotriol (MC 903)-induced atopic dermatitis-like inflammation of mouse ears; format: in vivo, Balb/C mouse; conditions: for MC 903-induced ear skin inflammation, histological analysis: H&E, vs control; for expression of the TSLP lymphokine in MC 903-treated mouse epidermis (immunohistochemistry): data not shown; for MC 903-induced transcription of pro-inflammatory genes (MMP13, COX2, IL-1β, IL-6, IL-10, IL-13 and TSLP): ear extracts, q-RT-PCR, D23; for MC 903-induced skin inflammation: topical 1 nmole/cm^2, 8 days co-treatment with MC 903
Protocol: To investigate the CpdX anti-inflammatory activity in vivo, Balb/C mouse ears were topically treated with calcipotriol (MC 903, a vitamin D3 analogue), in order to induce an atopic dermatitis (AD)-like inflammation (Li et al., 2006. Proc Natl Acad Sci USA. 103(31):11736-41).
Mice were treated for 14 days with MC 903, and then for 8 extra days (until D22) with either MC 903 alone (control), MC 903 and Dex, MC 903 and CpdX, MC 903 and CpdX(eA), MC 903 and CpdX(eB), MC 903 and CpdX-D3, MC 903 and CpdX-D3(eA) and MC 903 and CpdX-D3(eB).
At D23, RNA transcripts were extracted from mouse ear skin samples and the transcripts of 7 cytokines (MMP13, COX2, IL-1β, IL-6, IL-10, IL-13 and TSLP) were analyzed by q-RT-PCR. Ear skin was harvested and histological (with H&E staining) and immunohistochemical (with anti-TSLP antibodies) analyses were carried out.

[2] = test system: Aldara-induced psoriasis-like skin inflammation; test: Aldara-induced psoriasis-like skin inflammation of mouse ears; format: in vivo, Balb/C mouse; conditions: for Aldara-induced psoriasis-like skin inflammation, histological analyses: H&E staining; for induced expression of the Th17 cytokines IL-17a, IL-17c, IL-17f and IL-22: ear extracts, q-RT-PCR, D10; for Aldara-induced psoriasis-like skin inflammation: topical 1 nmole/cm^2, last 5 days of 9 days Aldara
Protocol: Balb/C mouse ears were topically treated with Aldara® to induce a psoriasis-like skin inflammation ([…] et al., 2015. Br J Dermatol. 172(2):345-53). Mice were treated for 9 days with Aldara®, including a co-topical treatment for the last 5 days with either ethanol (Vehicle), Dex, CpdX or CpdX-D3. At D10, RNA transcripts were extracted from mouse ears and IL-17a, IL-17c, IL-17f and IL-22 transcripts were analyzed by q-RT-PCR. Ear skin samples were also harvested for histological analyses (with H&E staining).

liver = test: Fatty liver after three-month treatment (red oil staining, q-RT-PCR, plasma cholesterol and bile acids); format: in vivo, B6 male mice; conditions: s.c. 1 mg/kg daily, three months
Protocol: B6 male mice (8-week-old) were daily subjected for three months to a subcutaneous injection of either vehicle (NaCl 0.9%), Dex, CpdX, CpdX(eA), CpdX(eB), CpdX-D3, CpdX-D3(eA) or CpdX-D3(eB) (1 mg/kg body weight, diluted in vehicle). Following this treatment, blood was collected at 10 a.m. by retro-orbital puncture in lithium-heparin coated vials. The plasmatic levels of total cholesterol and bile acids were determined.
Liver samples were harvested. […] RNA transcripts were extracted from liver samples and the transcripts of fatty acid synthase (FASN) and Stearoyl-CoA desaturase 1 (SCD1) genes were analyzed by q-RT-PCR.

[3] = Body weight and body composition after three-month treatment (pDEXA); format: in vivo, B6 male mice; conditions: s.c. 1 mg/kg daily, 3 months, pDEXA
Protocol: B6 male mice (8-week-old) were daily subjected for three months to a subcutaneous injection of either vehicle (NaCl 0.9%), Dex, CpdX or CpdX-D3 (1 mg/kg body weight, diluted in vehicle. A pDEXA machine was used to determine the lean mass and fat mass. The statistical significance was calculated through Krustal-Walis test followed by a Dunn's multiple comparison test, *p<0.05; **p<0.01; ***p<0.001.

[4] = test system: DSS-induced Th17 ulcerative colitis; test: Dextran sodium sulfate (DSS)-induced ulcerative colitis; format: in vivo, Balb/C mice; conditions: for pro-inflammatory genes overexpressed in DSS-induced ulcerative colitis (IL-1β, IL-6, IL-17a, IL-17f, TSLP, MMP13): colon, q-RT-PCR, D14; for colonic villus/crypt structure (histology) / mucosal and submucosal cell infiltration (histology): i.p. 1 mg/kg on D11, D12, D13, 3% DSS 13 days
Protocol: To investigate the anti-inflammatory activity of CpdX and CpdX-D3 on a Th17 ulcerative colitis, Balb/C mice were treated with 3% DSS in drinking water for 13 days, with or without an intraperitoneal administration of either Dex, CpdX, CpdX(eA), CpdX(eB), CpdX-D3, CpdX-D3(eA) or CpdX-D3(eB) (1 mg/kg of body weight) on D11, D12 and D13.
At D14, RNA transcripts were extracted from mouse colons. IL-1β, IL-6, IL-17a, IL-17f, TSLP and MMP13 transcripts were analyzed by q-RT-PCR. Colon samples were also harvested for histological analyses (with H&E staining).

[5] = test system: TPA-induced irritant contact dermatitis-like inflammation; test: TPA-induced irritant contact dermatitis-like inflammation of mouse ears; format: in vivo, Balb/C mouse; conditions: for TPA-induced ear skin inflammation, histological analysis: H&E, vs control; for TPA-induced ear skin inflammation, histological analysis / expression of TSLP in TPA-treated mouse epidermis (immunochemistry): data not shown; for expression of TSLP in TPA-treated mouse epidermis (immunochemistry): TSLP-specific antibody; for TPA-induced transcription of pro-inflammatory genes (CCL4, COX2, MMP13, IL-1β, IL-6, TNF-α, TSLP, IL-22, IL-23): ear extracts, q-RT-PCR, D10; for TPA-induced skin inflammation: topical 1 nmole/cm^2, 5 days co-treatment with TPA
Protocol: Balb/C mouse ears were topically treated with TPA to induce an “irritant contact dermatitis-like inflammation”. Mice were treated for 4 days with TPA, then for 5 extra days (until D9) with either vehicle, TPA alone, TPA and Dex, TPA and CpdX or TPA and CpdX-D3. At D10, RNA transcripts were extracted from mouse ear skin samples and the transcripts of CCL4, COX2, MMP13, IL-1β, IL-6, TNF-α, TSLP, IL-22 and IL-23 were analyzed by q-RT-PCR. Ear skin was harvested, and histological (with H&E staining) and immunohistochemical (with anti-TSLP antibodies) analyses were carried out.

[6] = test system: thymus, spleen, adrenal gland and kidney; test: Organ weights (thymus, spleen, adrenal gland, kidney) after three-month treatment; format: in vivo, B6 male mice; conditions: s.c. 1 mg/kg daily, three months
Protocol: B6 male mice (8-week-old) were daily subjected for three months to a subcutaneous injection of either vehicle (NaCl 0.9%), Dex, CpdX, CpdX(eA), CpdX(eB), CpdX-D3, CpdX-D3(eA) or CpdX-D3(eB) (1 mg/kg body weight, diluted in vehicle). Following these treatments, four organs (thymus, spleen, adrenal gland and kidney) were harvested and weighted.

adrenal glands = test: Corticosterone synthesis and adrenal gland after three-month treatment; format: in vivo, B6 male mice; conditions: three months; for cortex layers, most notably the fasciculata zone, of the adrenal glands (histology) / transcripts of Cyp11a, Cyp11b1 and HSD3β genes in adrenal glands (corticosterone synthesis pathway): s.c. 1 mg/kg daily; for transcripts of Cyp11a, Cyp11b1 and HSD3β genes in adrenal glands (corticosterone synthesis pathway): q-RT-PCR; for plasmatic corticosterone level at 10 a.m.: vs Vehicle
Protocol: B6 male mice (8-week-old) were daily subjected for three months to either a subcutaneous injection of vehicle (NaCl 0.9%), Dex, CpdX, CpdX(eA), CpdX(eB), CpdX-D3, CpdX-D3(eA) or CpdX-D3(eB) (1 mg/kg body weight, diluted in vehicle).
Following this long-term treatment, blood was collected at 10 a.m. and 6 p.m. by retro-orbital puncture in lithium-heparin coated vials, and the plasmatic level of corticosterone was determined. Adrenal glands were harvested and weighted. RNA transcripts were extracted and transcripts of the Cyp11a, Cyp11b1, Cyp11b2 and HSD3β genes were analyzed by q-RT-PCR. Histological analyses of the adrenal glands were also carried out.

lipid deposition in the liver (5% red oil staining) (liver)	cortex layers, most notably the fasciculata zone, of the adrenal glands (histology) (adrenal glands)	transcripts of Cyp11a, Cyp11b1 and HSD3β genes in adrenal glands (corticosterone synthesis pathway) (adrenal glands)	plasmatic corticosterone level at 10 a.m. (adrenal glands)	SMILES	MC 903-induced ear skin inflammation, histological analysis [1]	expression of the TSLP lymphokine in MC 903-treated mouse epidermis (immunohistochemistry) [1]	MC 903-induced transcription of pro-inflammatory genes (MMP13, COX2, IL-1β, IL-6, IL-10, IL-13 and TSLP) [1]	MC 903-induced skin inflammation [1]	Aldara-induced psoriasis-like skin inflammation, histological analyses [2]	induced expression of the Th17 cytokines IL-17a, IL-17c, IL-17f and IL-22 [2]	Aldara-induced psoriasis-like skin inflammation [2]	fat mass / fat percentage, change from baseline [3]	lean mass / lean percentage, change from baseline [3]	pro-inflammatory genes overexpressed in DSS-induced ulcerative colitis (IL-1β, IL-6, IL-17a, IL-17f, TSLP, MMP13) [4]	colonic villus/crypt structure (histology) [4]	mucosal and submucosal cell infiltration (histology) [4]	TPA-induced ear skin inflammation, histological analysis [5]	expression of TSLP in TPA-treated mouse epidermis (immunochemistry) [5]	TPA-induced transcription of pro-inflammatory genes (CCL4, COX2, MMP13, IL-1β, IL-6, TNF-α, TSLP, IL-22, IL-23) [5]	thymus apoptosis (thymus weight) [6]	further results
not observed	markedly increased	increased	much higher	COc1ccc(F)cc1C(C)(C)CC(O)(CNc1ccc2c(c1)COC2=O)C(F)(F)F (racemic) [CpdX, 5-[4-(5-fluoro-2-methoxyphenyl)-2-hydroxy-4-methyl-2-(trifluoromethyl)pentylamino]-isobenzofuran-1(3H)-one]	decreased	similarly strongly decreased	repressed, as efficiently as Dex	significantly decreased	could reduce	similarly reduced	significantly decreased	commensurate increase	commensurate increase	similarly repressed	almost reestablished	significantly decreased	significantly decreased	similarly strongly decreased	repressed, as efficiently as Dex	did not result in any significant thymus apoptosis	TPA-induced skin inflammation [5]: significantly decreased
not observed	markedly increased	increased	much higher	[2H]C([2H])([2H])Oc1ccc(F)cc1C(C)(C)CC(O)(CNc1ccc2c(c1)COC2=O)C(F)(F)F (racemic) [CpdX-D3, 5-{4-[2-(methoxy-D3)-5-fluorophenyl]-2-hydroxy-4-methyl-2-(trifluoromethyl)pentylamino}isobenzofuran-1(3H)-one]	decreased	similarly strongly decreased	repressed, as efficiently as Dex	significantly decreased	could reduce	similarly reduced	significantly decreased	commensurate increase	commensurate increase	similarly repressed	almost reestablished	significantly decreased	significantly decreased	similarly strongly decreased	repressed, as efficiently as Dex	did not result in any significant thymus apoptosis	TPA-induced skin inflammation [5]: significantly decreased
	markedly increased	increased	much higher	COc1ccc(F)cc1C(C)(C)CC(O)(CNc1ccc2c(c1)COC2=O)C(F)(F)F (single isomer, unassigned; enantiomer a) [CpdX(eA), 5-[4-(5-fluoro-2-methoxyphenyl)-2-hydroxy-4-methyl-2-(trifluoromethyl)-pentylamino]isobenzofuran-1(3H)-one enantiomer A]										similarly repressed	almost reestablished	significantly decreased				did not result in any significant thymus apoptosis	
	markedly increased	increased	much higher	[2H]C([2H])([2H])Oc1ccc(F)cc1C(C)(C)CC(O)(CNc1ccc2c(c1)COC2=O)C(F)(F)F (single isomer, unassigned; enantiomer a) [CpdX-D3(eA), 5-{4-[2-(methoxy-D3)-5-fluorophenyl]-2-hydroxy-4-methyl-2-(trifluoromethyl)pentylamino}isobenzofuran-1(3H)-one enantiomer A]										similarly repressed	almost reestablished	significantly decreased				did not result in any significant thymus apoptosis	
